The test system of test [1] is neutrophils. The experiment in a line: phagokinetic activity of neutrophils on gold sol-coated plates. It is filed as cell-based, human. The settings on record: for activity at 4.5 µM / activity at 12 µM: Homo sapiens, Neutrophil; for activity at 4.5 µM: 2 h, read-out: Area Swept; for activity at 12 µM: read-out: Area Swept (recovery of phagokinetic activity). As to the method: The phagokinetic activity of neutrophils on gold sol-coated plates can be determined by a technique essentially as taught in Albrecht-Buehler (Cell, 11, 395, 1977). […] Thus, the inhibitory effect of TMS on phagokinetic activity is not dependent on cytotoxicity.
.sctn. The area swept by neutrophils was determined in photographs of the
monolayers. The regions cleared by neutrophil movement were then cut out
Phagokinetic activity was observed by tracing tracks of neutrophils moving on a glass substrate covered with gold colloid particles. The technique was described originally by Albrecht-Buehler, supra, using 3T3 and other cell lines. Briefly, 22×22 mm square glass coverslips (Corning Glass Works, Corning, N.Y.) were dipped for 1 min into 1% BSA prepared in Milli Q water. The BSA solution was prepared fresh each day and passed through 0.20 μm Nalgene filters (Nalgene Labware Division, Rochester, N.Y.).
The coverslip then was drained by touching a Kim-wipe paper towel to its edge, dipped into 100% ethanol and rapidly and completely dried in a 85° C. hot airstream. The coverslip was placed in a 3.5 cm Falcon plastic dish. Then 5.4 ml of AuCl4 H and 18 ml of 36.5 mM Na2 CO3 were added to 33 ml of distilled water and heated. Immediately after reaching the boiling point, 5.4 ml of 0.1% formaldehyde in water were added quickly and mixed. The suspension of gold particles forming a brownish color was distributed immediately onto the dish (2 ml each) and the coverslip was incubated for 2 hr at 37° C.
Particle-coated coverslips were washed in PBS, then twice in RPMI 1640 and finally put in another 3.5 cm Falcon plastic dish containing 2 ml of RPMI 1640 with glutamate and pyruvate. The coverslips were stored at 4° C. and used within 24 hr after preparation.
The freshly-purified neutrophils (1×10^4 cells/plate) were added onto the colloid-coated coverslip. TMS and other effectors were added into the medium on the plate. As a control, the solvent of the effectors (50% ethanol) was added at an equal amount. At that concentration (0.1%), ethanol brought no significant effect on neutrophil activities. To observe cell recovery from exposure to the effectors, neutrophils (2×10^5 cells/ml) were pre-incubated at 37° C. with 12 μM of TMS, SPN and DMS, then distributed to the dish dropwise, diluting the effectors 200-fold. Incubation was conducted under 5% CO2 at 37° C. for 2 hr and terminated by adding 200 μl of 10% formaldehyde. Microscopic examination of each plate was performed with a Nikon microscope, connected to a Polaroid camera for recordings. Phagokinetic activity was measured by tracing the track of a neutrophil. The track was recorded with photographs, then the area was measured by cutting and weighing there swept area.

The subject of test [2] is neutrophils. The experiment in a line: neutrophil transmigration through HUVEC monolayer. It is filed as cell-based, human. How it is done:
A characteristic of neutrophils is the ability to adhere to activiated EC's and to migrate through the EC monolayer into the vascular or extravascular matrix. The effect of TMS on neutrophil interactions with EC's and their subsequent trans-endothelial migration thereof can be monitored in vitro using human umbilical endothelial cells (HUVEC's) (Luscinskas et al., J. Imm., 146, 1617, 1991). Neutrophils are added to a HUVEC monolayer and neutrophil-HUVEC interactions are assessed microscopically following fixation, embedding and staining of monolayer sections.
Cross-sections (2 μm) of the collagen bed with HUVEC's and neutrophils
were observed using a Zeiss light microscope with KPL W10 ahd Ph2 Neoflua
16 lenses. The number of cells transmigrated were counted for each view.
HUVEC's and culture media were purchased from Cell Systems (Kirkland, Wash.). The cells were maintained and cultured as described in Luscinskas et al., supra, with some modifications. Briefly, HUVEC's were maintained in 10 ml tissue culture flasks on a collagen type I bed obtained from rat tail (Upstate Biotechnology Inc, Lake Placid, N.Y.) with CS-complete medium, CS-growth factor and CS-AF-1 (Cell Systems). Cells became confluent within 2 to 4 days when incubated in 5% CO2 at 37° C.
For the transmigration assay, thick gels were formed in 24-well tissue culture plates. Preparation of the gel solution was carried out at 4° C. Eight parts of collagen solution (Vitrogen 100, from bovine tendon which contained less than 5 ng/ml endotoxin; Celtrix Labs, Palo Alto, Calif.), one part of 10×RPMI and one part of alkaline solution (2.2 g NaHCO3 in 100 ml of 0.05N NaOH and 200 mM HEPES) were mixed gently and distributed at 0.7 ml/well. The solution was left for 4 hr at 37° C. to eliminate air bubbles, then allowed to gel in a 37° C. oven for 3 hr. The wells were washed with 1.0 ml of CS-complete medium with attachment factors at least 4 times and every 3 to 6 hr during further incubation at 37° C. in 5% CO2.
HUVEC's at a passage level of less than 3 were detached from 10 ml tissue culture flasks with 3 ml of Trypsin-EDTA at 37° C. for 30 to 60 sec. Immediately, 3 ml of M199 with 20% heat-inactivated FCS was added. Cells were collected by centrifugation. The pellet was resuspended in 10 ml of CS-complete medium with attachment factors. Homogeneous cell suspensions were plated at 0.7 ml to each well and the plates were incubated for 3 hr at 37° C. The supernatant, which contains dead cells, was aspirated carefully and fresh complete medium with attachment factors was added.
The HUVEC monolayer in 24-well tissue culture plates were washed with M199 without FCS, then incubated with 1 ml/well of IL-1β (Boehringer Mannheim Biochemical Products, Indianapolis, Ind.) dissolved in M199 with 1% heat-inactivated FCS (HIFCS) at 10 U/ml. The plates were incubated at 37° C., 5% CO2 for 4 hr then washed gently with 1 ml of M199. The purified neutrophil suspension (1.5×10^6 cells/ml) in M199 containing 1% HIFCS was pre-incubated with TMS, or other effectors, for 10 min at 37° C. After aspirating the media in the well, 0.5 ml of the neutrophil suspension were added onto the HUVEC monolayer. The tissue culture plate was incubated for 90 min at 37° C.
The culture was terminated by gently aspirating the cell suspension, adding 1 ml of 10% formaldehyde in PBS and stored at 4° C. overnight for fixation. The edge of the collagen bed was cut with a small spatula along the wall 2 hr before removal from the well. The collagen bed, which has HUVEC's on the surface and transmigrated neutrophils within was embedded in paraffin, sectioned and followed by staining with hematoxylin-eosin for microscopic examination.

[3] abbreviates: Table IV, 12 μM preincubation then 200-fold dilution, control 100.

Read-outs that look alike come from different tables or passages of the source.

The values that follow come from patent US5466716A, “Liposomal trimethylsphingosine” (The Biomembrane Institute, priority 1994, dated 1995).

In the case of `CCCCCCCCCCCCC/C=C/[C@@H](O)[C@H](CO)N(C)C` [DMS, (4E)-N,N-dimethyl-D-erythro-sphingosine], the activity at 4.5 µM with neutrophils [1] (Table I, 4.5 μM, control 100) came out at 26 ± 25%. Further, in the test on neutrophils [1] (setting [3]), the activity at 12 µM was determined as 32 ± 19%.
Regarding Calphostin C, in the test with neutrophils [1] (Table I, 0.5 μM, control 100, 120 min), the “Area Swept” value was 39 ± 11%. In the test with neutrophils [2] (Table III, 5 μM, control 100, 90 min), the “Number of Cells/View” value was found to be 19 ± 8.9.
With `CCCCCCCCCCCCC/C=C/[C@@H](O)[C@@H](N)CO` [SPN, sphingosine], in the test with neutrophils [1], the activity at 4.5 µM is 14 ± 7% and the activity at 12 µM was 42 ± 24%. Also, the activity at 15 µM in the test with neutrophils [2] (Homo sapiens, Neutrophil, 1.5 h, read-out: Number of Cells/View) was 36 ± 12%.
Turning to `CCCCCCCCCCCCC/C=C/[C@@H](O)[C@H](CO)[N+](C)(C)C` [TMS, N,N,N-trimethylsphingosine], the “suppression of phagokinetic activity” value was “suppressed significantly” in the test with neutrophils [1] (1.5 μM) and “completely suppressed” in the test with neutrophils [1] (4.5 μM). In addition, the “neutrophil migration (phagokinetic)” value with neutrophils [1] (Example 9) was “inhibited neutrophil migration”. Also, the activity at 4.5 µM with neutrophils [1] (Table I, 4.5 μM, control 100) came out at 16 ± 18%. Further, the activity at 12 µM in the test with neutrophils [1] (setting [3]) amounted to 92 ± 34%. Also, the “reversal of inhibitory effect on phagokinetic activity” value with neutrophils [1] (medium replaced with TMS-free medium) is “reversed completely”. The “inhibition of neutrophil migration” value is on record as “inhibited strongly” in the test on neutrophils [2] (8 μM pre-treatment) and “completely inhibited” in the test with neutrophils [2] (25 μM pre-treatment). Also, in the test with neutrophils [2] (15 μM), the “number of cells migrating through the EC monolayer” value was “greatly reduces the number of cells migrating”. Moreover, the “neutrophil migration (transmigration)” value in the test on neutrophils [2] (Example 10) is on record as “affected neutrophil migration”. Further, the activity at 4 µM in the test on neutrophils [2] (Homo sapiens, Neutrophil, 1.5 h, Table II, 4 μM, control 100, read-out: neutrophil transmigration (number of cells transmigrated)) turned out to be 96 ± 18%. Further, in the test with neutrophils [2] (Homo sapiens, Neutrophil, 1.5 h, Table II, 8 μM, control 100, read-out: neutrophil transmigration (number of cells transmigrated)), the activity at 8 µM turned out to be 66 ± 28%. For the same compound, the activity at 15 µM in the test on neutrophils [2] (Homo sapiens, Neutrophil, 1.5 h, Table II, 15 μM, control 100, read-out: neutrophil transmigration (number of cells transmigrated)) turned out to be 41 ± 8.7%; in the test with neutrophils [2] (Homo sapiens, Neutrophil, 1.5 h, Table III, 15 μM, control 100, read-out: Number of Cells/View), 39 ± 17%. Further, the activity at 25 µM in the test with neutrophils [2] (Homo sapiens, Neutrophil, 1.5 h, Table II, 25 μM, control 100, read-out: neutrophil transmigration (number of cells transmigrated)) came out at 6.8 ± 4.1%. Further, in the test on neutrophils [2] (Homo sapiens, Neutrophil, 1.5 h, Table II, 45 μM, control 100, read-out: neutrophil transmigration (number of cells transmigrated)), the activity at 45 µM is 1.2 ± 1.2%.
